# According to publication PMC4268243 (Nuclear medicine and biology, 2014):
# Tests used:
# [1] = test system: MDA MB468 estrogen-independent breast carcinoma cells; experiment: Amino acid uptake and inhibition in MDA MB468 cells; assay type: cell-based, human; conditions: MDA MB468, 30 minutes incubation
# A549 tumor xenograft = experiment: Biodistribution in A549 tumor-bearing SCID mice; assay type: in vivo; conditions: listed as (R)-[^18F] FAMP 1
# DU145 tumor xenograft = experiment: Biodistribution in DU145 tumor-bearing SCID mice; assay type: in vivo; conditions: listed as (R)-[^18F] FAMP 1
smiles,measurement,setting,value
CC(N)(C[18F])C(=O)O [(R)-[^18F]1] [2-amino-3-[^18F]fluoro-2-methylpropanoic acid],Cell uptake,[1]; 10 mM BCH,3.0±0.4 % ID/5×10^5 cells
same,Cell uptake,[1]; 10 mM MeAIB,4.4±0.2 % ID/5×10^5 cells
same,Cell uptake,[1]; Control (no inhibitor),5.7±0.3 % ID/5×10^5 cells
same,uptake in blood,A549 tumor xenograft; 15 min post injection,2.9±0.4 %ID/g
same,uptake in bone,A549 tumor xenograft; 15 min post injection,2.6±0.6 %ID/g
same,uptake in brain,A549 tumor xenograft; 15 min post injection,0.8±0.2 %ID/g
same,uptake in heart,A549 tumor xenograft; 15 min post injection,4.4±01.0 %ID/g
same,uptake in kidney,A549 tumor xenograft; 15 min post injection,18±3.5 %ID/g
same,uptake in liver,A549 tumor xenograft; 15 min post injection,4.8±0.5 %ID/g
same,uptake in lung,A549 tumor xenograft; 15 min post injection,5.0±0.9 %ID/g
same,uptake in muscle,A549 tumor xenograft; 15 min post injection,2.0±0.4 %ID/g
same,uptake in pancreas,A549 tumor xenograft; 15 min post injection,54±14 %ID/g
same,uptake in spleen,A549 tumor xenograft; 15 min post injection,9.5±3.9 %ID/g
same,uptake in tumor,A549 tumor xenograft; 15 min post injection,9.9±1.7 %ID/g
same,uptake in blood,A549 tumor xenograft; 30 min post injection,2.0±0.2 %ID/g
same,uptake in bone,A549 tumor xenograft; 30 min post injection,2.3±0.6 %ID/g
same,uptake in brain,A549 tumor xenograft; 30 min post injection,0.9±0.2 %ID/g
same,uptake in heart,A549 tumor xenograft; 30 min post injection,3.5±1.0 %ID/g
same,uptake in kidney,A549 tumor xenograft; 30 min post injection,10±1.9 %ID/g
same,uptake in liver,A549 tumor xenograft; 30 min post injection,5.7±1.2 %ID/g
same,uptake in lung,A549 tumor xenograft; 30 min post injection,3.1±1.0 %ID/g
same,uptake in muscle,A549 tumor xenograft; 30 min post injection,2.0±0.6 %ID/g
same,uptake in pancreas,A549 tumor xenograft; 30 min post injection,43±11 %ID/g
same,uptake in spleen,A549 tumor xenograft; 30 min post injection,7.8±1.6 %ID/g
same,uptake in tumor,A549 tumor xenograft; 30 min post injection,7.5±1.9 %ID/g
same,uptake in blood,A549 tumor xenograft; 60 min post injection,1.3±0.1 %ID/g
same,uptake in bone,A549 tumor xenograft; 60 min post injection,2.0±0.6 %ID/g
same,uptake in brain,A549 tumor xenograft; 60 min post injection,1.1±0.3 %ID/g
same,uptake in heart,A549 tumor xenograft; 60 min post injection,3.5±0.9 %ID/g
same,uptake in kidney,A549 tumor xenograft; 60 min post injection,6.6±1.0 %ID/g
same,uptake in liver,A549 tumor xenograft; 60 min post injection,5.3±1.1 %ID/g
same,uptake in lung,A549 tumor xenograft; 60 min post injection,2.3±0.5 %ID/g
same,uptake in muscle,A549 tumor xenograft; 60 min post injection,1.8±0.2 %ID/g
same,uptake in pancreas,A549 tumor xenograft; 60 min post injection,28±6.3 %ID/g
same,uptake in spleen,A549 tumor xenograft; 60 min post injection,5.1±1.8 %ID/g
same,uptake in tumor,A549 tumor xenograft; 60 min post injection,7.7±1.9 %ID/g
same,uptake in blood,A549 tumor xenograft; 120 min post injection,1.3±0.9 %ID/g
same,uptake in bone,A549 tumor xenograft; 120 min post injection,2.2±1.1 %ID/g
same,uptake in brain,A549 tumor xenograft; 120 min post injection,1.8±0.9 %ID/g
same,uptake in heart,A549 tumor xenograft; 120 min post injection,3.9±1.5 %ID/g
same,uptake in kidney,A549 tumor xenograft; 120 min post injection,5.5±3.1 %ID/g
same,uptake in liver,A549 tumor xenograft; 120 min post injection,7.1±2.4 %ID/g
same,uptake in lung,A549 tumor xenograft; 120 min post injection,1.9±0.6 %ID/g
same,uptake in muscle,A549 tumor xenograft; 120 min post injection,2.3±1.2 %ID/g
same,uptake in pancreas,A549 tumor xenograft; 120 min post injection,20±7.1 %ID/g
same,uptake in spleen,A549 tumor xenograft; 120 min post injection,4.9±3.1 %ID/g
same,uptake in tumor,A549 tumor xenograft; 120 min post injection,8.8±4.8 %ID/g
same,uptake in blood,DU145 tumor xenograft; 15 min post injection,5.2±1.2 %ID/g
same,uptake in bone,DU145 tumor xenograft; 15 min post injection,3.9±1.0 %ID/g
same,uptake in brain,DU145 tumor xenograft; 15 min post injection,1.0±0.3 %ID/g
same,uptake in heart,DU145 tumor xenograft; 15 min post injection,5.8±1.5 %ID/g
same,uptake in kidney,DU145 tumor xenograft; 15 min post injection,26±7.5 %ID/g
same,uptake in liver,DU145 tumor xenograft; 15 min post injection,7.2±3.4 %ID/g
same,uptake in lung,DU145 tumor xenograft; 15 min post injection,7.6±1.8 %ID/g
same,uptake in muscle,DU145 tumor xenograft; 15 min post injection,2.9±0.7 %ID/g
same,uptake in pancreas,DU145 tumor xenograft; 15 min post injection,62±20 %ID/g
same,uptake in spleen,DU145 tumor xenograft; 15 min post injection,17±7.6 %ID/g
same,uptake in tumor,DU145 tumor xenograft; 15 min post injection,8.8±1.9 %ID/g
same,uptake in blood,DU145 tumor xenograft; 30 min post injection,3.7±0.3 %ID/g
same,uptake in bone,DU145 tumor xenograft; 30 min post injection,4.0±0.3 %ID/g
same,uptake in brain,DU145 tumor xenograft; 30 min post injection,1.3±0.1 %ID/g
same,uptake in heart,DU145 tumor xenograft; 30 min post injection,5.6±0.6 %ID/g
same,uptake in kidney,DU145 tumor xenograft; 30 min post injection,16±2.2 %ID/g
same,uptake in liver,DU145 tumor xenograft; 30 min post injection,6.3±0.8 %ID/g
same,uptake in lung,DU145 tumor xenograft; 30 min post injection,3.1±0.4 %ID/g
same,uptake in muscle,DU145 tumor xenograft; 30 min post injection,3.5±0.5 %ID/g
same,uptake in pancreas,DU145 tumor xenograft; 30 min post injection,52±3.8 %ID/g
same,uptake in spleen,DU145 tumor xenograft; 30 min post injection,13±1.4 %ID/g
same,uptake in tumor,DU145 tumor xenograft; 30 min post injection,8.4±1.1 %ID/g
same,uptake in blood,DU145 tumor xenograft; 60 min post injection,2.2±0.3 %ID/g
same,uptake in bone,DU145 tumor xenograft; 60 min post injection,3.2±0.7 %ID/g
same,uptake in brain,DU145 tumor xenograft; 60 min post injection,1.5±0.3 %ID/g
same,uptake in heart,DU145 tumor xenograft; 60 min post injection,4.8±1.0 %ID/g
same,uptake in kidney,DU145 tumor xenograft; 60 min post injection,10±0.8 %ID/g
same,uptake in liver,DU145 tumor xenograft; 60 min post injection,5.5±1.0 %ID/g
same,uptake in lung,DU145 tumor xenograft; 60 min post injection,2.0±0.4 %ID/g
same,uptake in muscle,DU145 tumor xenograft; 60 min post injection,3.0±0.7 %ID/g
same,uptake in pancreas,DU145 tumor xenograft; 60 min post injection,39±6.9 %ID/g
same,uptake in spleen,DU145 tumor xenograft; 60 min post injection,11±2.9 %ID/g
same,uptake in tumor,DU145 tumor xenograft; 60 min post injection,7.9±1.7 %ID/g
same,uptake in blood,DU145 tumor xenograft; 120 min post injection,1.6±0.3 %ID/g
same,uptake in bone,DU145 tumor xenograft; 120 min post injection,2.6±0.5 %ID/g
same,uptake in brain,DU145 tumor xenograft; 120 min post injection,1.6±0.2 %ID/g
same,uptake in heart,DU145 tumor xenograft; 120 min post injection,4.9±0.9 %ID/g
same,uptake in kidney,DU145 tumor xenograft; 120 min post injection,7.9±0.7 %ID/g
same,uptake in liver,DU145 tumor xenograft; 120 min post injection,3.6±0.6 %ID/g
same,uptake in lung,DU145 tumor xenograft; 120 min post injection,2.1±0.8 %ID/g
same,uptake in muscle,DU145 tumor xenograft; 120 min post injection,2.7±0.8 %ID/g
same,uptake in pancreas,DU145 tumor xenograft; 120 min post injection,27±4.5 %ID/g
same,uptake in spleen,DU145 tumor xenograft; 120 min post injection,6.0±0.9 %ID/g
same,uptake in tumor,DU145 tumor xenograft; 120 min post injection,6.8±0.8 %ID/g
